Here are results for 17 compounds from ChEMBL document CHEMBL3286240, “Inhibition of Enterococcus faecalis biofilm formation by highly active lactones and lactams analogues of rubrolides” (Eur J Med Chem, 2014).

In test [1] the test system is Enterococcus faecalis. In words: Antimicrobial activity against Enterococcus faecalis assessed as bacterial growth at 0.68 ug/ml after 20 hrs by microtiter plate assay. The format is functional.
In test [2] the test system is Enterococcus faecalis. In words: Antimicrobial activity against Enterococcus faecalis assessed as bacterial growth at 0.34 ug/ml after 20 hrs by microtiter plate assay. The class given is functional.
Test [3] concerns Enterococcus faecalis. As to the kind of experiment: Antimicrobial activity against Enterococcus faecalis assessed as inhibition of biofilm formation after 20 hrs by crystal violet staining analysis. The format is functional, organism-based.
Test [4] has as its system Enterococcus faecalis. As to the kind of experiment: Antimicrobial activity against Enterococcus faecalis assessed as bacterial growth at 2.73 ug/ml after 20 hrs by microtiter plate assay. The class given is functional.
Test [5] deals with Enterococcus faecalis. As to the kind of experiment: Antimicrobial activity against Enterococcus faecalis assessed as bacterial growth at 21.9 ug/ml after 20 hrs by microtiter plate assay. The format is functional.
Test [6] concerns Enterococcus faecalis. In words: Antimicrobial activity against Enterococcus faecalis assessed as bacterial growth at 43.8 ug/ml after 20 hrs by microtiter plate assay. The format is functional.
The test system of test [7] is Enterococcus faecalis. As to the kind of experiment: Antimicrobial activity against Enterococcus faecalis assessed as bacterial growth at 0.17 ug/ml after 20 hrs by microtiter plate assay. The class given is functional.
In test [8] the test system is Enterococcus faecalis. In words: Antimicrobial activity against Enterococcus faecalis assessed as bacterial growth at 1.37 ug/ml after 20 hrs by microtiter plate assay. The class given is functional.
Test [9] has as its system Enterococcus faecalis. In words: Antimicrobial activity against Enterococcus faecalis assessed as bacterial growth at 10.9 ug/ml after 20 hrs by microtiter plate assay. The class given is functional.
Test [10] relates to Enterococcus faecalis. In words: Antimicrobial activity against Enterococcus faecalis assessed as bacterial growth at 5.5 ug/ml after 20 hrs by microtiter plate assay. The format is functional.
Test [11] concerns Enterococcus faecalis. In words: Antimicrobial activity against Enterococcus faecalis assessed as bacterial growth at 87.5 ug/ml after 20 hrs by microtiter plate assay. The format is functional.

Each structure is given as a SMILES string. Values after ≈ are worked out from the molar mass of the structure shown. Some results are limits rather than exact numbers.

In general, IC50 refers to the concentration that gives 50% inhibition.

Consider `COc1cccc(/C=C2/C(c3cc(Cl)ccc3OC)=C(Br)C(=O)N2CC(C)C)c1`, for which the Activity with Enterococcus faecalis [1] was found to be 5.9%; with Enterococcus faecalis [2], 2.5%; with Enterococcus faecalis [4] it was 29.1%; in the test on Enterococcus faecalis [5], 45.7%; in the test with Enterococcus faecalis [6], 55.6%; in the test with Enterococcus faecalis [7] it was 0.2%. In addition, the Activity with Enterococcus faecalis [8] stood at 21%; in the test on Enterococcus faecalis [9], 39.3%; in the test on Enterococcus faecalis [10], 42.5%; in the test on Enterococcus faecalis [11], 94.6%. Moreover, the IC50 in the test on Enterococcus faecalis [3] was found to be 1.46 µg/mL (≈ 3.06 µM).

On to `COc1ccccc1C1=C(Br)C(=O)O/C1=C\c1ccc(C(F)(F)F)cc1`, for which the Activity is -9.1% in the test with Enterococcus faecalis [1]; -6.7% in the test on Enterococcus faecalis [2]; -4.8% in the test with Enterococcus faecalis [4]; 26% with Enterococcus faecalis [5]; 46.3% with Enterococcus faecalis [6]; -4.5% in the test with Enterococcus faecalis [7]. In addition, the Activity in the test with Enterococcus faecalis [8] is given as -7.6%; with Enterococcus faecalis [9], 15.2%; in the test on Enterococcus faecalis [10], 7.1%; in the test on Enterococcus faecalis [11] it was 66.5%.

For the compound `COc1ccc(Cl)cc1C1=C(Br)C(=O)N(CC(C)C)/C1=C/c1ccccc1Br`, the Activity amounted to 9.1% in the test on Enterococcus faecalis [1]; 7.4% in the test with Enterococcus faecalis [2]; 33.3% in the test with Enterococcus faecalis [4]; 32.4% in the test with Enterococcus faecalis [5]; 43.4% in the test with Enterococcus faecalis [6]; 0.5% with Enterococcus faecalis [7]. The Activity is listed as 19.2% in the test with Enterococcus faecalis [8], 42.7% in the test on Enterococcus faecalis [9], 43.4% in the test with Enterococcus faecalis [10] and 60.9% with Enterococcus faecalis [11]. Also, the IC50 in the test on Enterococcus faecalis [3] was determined as 0.76 µg/mL (≈ 1.45 µM).

`COc1ccc(C)cc1C1=C(Br)C(=O)O/C1=C\c1ccccc1Cl`: the Activity with Enterococcus faecalis [1] came out at 33.9%; in the test with Enterococcus faecalis [2] it was 29.9%; in the test on Enterococcus faecalis [4], 19.9%; in the test with Enterococcus faecalis [5], 18.2%; with Enterococcus faecalis [6] it was 28.8%; with Enterococcus faecalis [7] it was 21%. Moreover, the Activity in the test on Enterococcus faecalis [8] is reported as 27.1%; in the test with Enterococcus faecalis [9], 5.1%; in the test with Enterococcus faecalis [10] it was 19.1%; in the test on Enterococcus faecalis [11], 63.8%.

With `COc1ccc(Br)cc1C1=C(Br)C(=O)N(CC(C)C)/C1=C\c1ccc(Br)cc1`, the Activity in the test on Enterococcus faecalis [1] is reported as -1.3%; with Enterococcus faecalis [2], 0.3%; with Enterococcus faecalis [4], 33.9%; in the test with Enterococcus faecalis [5] it was 58.1%; in the test on Enterococcus faecalis [6], 59.7%; with Enterococcus faecalis [7] it was -2.2%. The Activity is 17.5% in the test with Enterococcus faecalis [8], 55.9% in the test on Enterococcus faecalis [9], 43% in the test on Enterococcus faecalis [10] and 82.8% in the test with Enterococcus faecalis [11]. Also, the half-maximal inhibitory concentration (IC50) in the test with Enterococcus faecalis [3] was 6.62 µg/mL (≈ 11.6 µM).

Turning to `COc1ccc(Br)cc1C1=C(Br)C(=O)O/C1=C\c1cccc(Cl)c1`, the Activity was 4.8% in the test with Enterococcus faecalis [1]; 0.8% in the test on Enterococcus faecalis [2]; 16% in the test on Enterococcus faecalis [4]; 34.8% with Enterococcus faecalis [5]; 38.8% in the test on Enterococcus faecalis [6]; 7.2% in the test with Enterococcus faecalis [7]. Further, the Activity with Enterococcus faecalis [8] was determined as 14.4%; in the test with Enterococcus faecalis [9], 18.4%; in the test on Enterococcus faecalis [10], 14.9%; in the test with Enterococcus faecalis [11], 72.1%. Further, the IC50 in the test on Enterococcus faecalis [3] stood at 6.91 µg/mL (≈ 14.7 µM).

In the case of `COc1ccc(Cl)cc1C1=C(Br)C(=O)N(CC(C)C)/C1=C\c1ccccc1Br`, the Activity in the test on Enterococcus faecalis [1] is reported as 19.2%; in the test on Enterococcus faecalis [2], 0%; with Enterococcus faecalis [4], 44.9%; in the test with Enterococcus faecalis [5] it was 61.5%; in the test with Enterococcus faecalis [6], 70%; in the test with Enterococcus faecalis [7], -4.1%. In addition, the Activity in the test on Enterococcus faecalis [8] was 45.1%; in the test on Enterococcus faecalis [9], 53.3%; with Enterococcus faecalis [10], 35.1%; in the test with Enterococcus faecalis [11] it was 100.8%. Moreover, the IC50 in the test with Enterococcus faecalis [3] stood at 1.48 µg/mL (≈ 2.82 µM).

On to `COc1ccc(C)cc1C1=C(Br)C(=O)N(CC(C)C)/C1=C\c1cccc(Cl)c1`, for which the Activity is recorded as 11.6% with Enterococcus faecalis [1]; 6.9% with Enterococcus faecalis [2]; 14.5% in the test with Enterococcus faecalis [4]; 46.8% with Enterococcus faecalis [5]; 61.8% in the test on Enterococcus faecalis [6]; 6% in the test on Enterococcus faecalis [7]. The Activity is given as 11.9% with Enterococcus faecalis [8], 34.4% in the test with Enterococcus faecalis [9], 31.1% with Enterococcus faecalis [10] and 64.5% in the test on Enterococcus faecalis [11]. For the same compound, the IC50 in the test on Enterococcus faecalis [3] stood at 62.6 µg/mL (≈ 136 µM).

On to `COc1ccc(C)cc1C1=C(Br)C(=O)N(CC(C)C)/C1=C\c1ccccc1Cl`, for which the Activity in the test on Enterococcus faecalis [1] was 6.9%; with Enterococcus faecalis [2], -7.4%; with Enterococcus faecalis [4], 33%; with Enterococcus faecalis [5], 52.2%; in the test with Enterococcus faecalis [6] it was 62.1%; in the test with Enterococcus faecalis [7], -4.2%. The Activity with Enterococcus faecalis [8] was 24.6%; with Enterococcus faecalis [9] it was 45.1%; with Enterococcus faecalis [10], 41.9%; in the test on Enterococcus faecalis [11], 95.3%. In the test with Enterococcus faecalis [3], the IC50 came out at 1.09 µg/mL (≈ 2.37 µM).

With `COc1ccccc1C1=C(Br)C(=O)N(CC(C)C)/C1=C/c1ccc(C(F)(F)F)cc1`, the Activity is listed as 2.3% in the test with Enterococcus faecalis [1]; 0.4% in the test with Enterococcus faecalis [2]; 10.9% in the test on Enterococcus faecalis [4]; 15.8% in the test on Enterococcus faecalis [5]; 17.5% in the test with Enterococcus faecalis [6]; 3.3% with Enterococcus faecalis [7]. The Activity is reported as 1.6% in the test on Enterococcus faecalis [8], 11.1% in the test on Enterococcus faecalis [9], 9.2% in the test on Enterococcus faecalis [10] and -18.9% in the test with Enterococcus faecalis [11]. The IC50 with Enterococcus faecalis [3] was found to be 2.96 µg/mL (≈ 6.16 µM).

`COc1ccc(C)cc1C1=C(Br)C(=O)N(CC(C)C)C1(O)Cc1cccc(Cl)c1` (centres undefined): the Activity is 3.3% with Enterococcus faecalis [1]; 0.7% with Enterococcus faecalis [2]; 4.8% with Enterococcus faecalis [4]; 24.9% with Enterococcus faecalis [5]; 36.8% in the test on Enterococcus faecalis [6]; -2.5% in the test with Enterococcus faecalis [7]. In addition, the Activity with Enterococcus faecalis [8] was determined as 2.1%; in the test on Enterococcus faecalis [9], 5.8%; with Enterococcus faecalis [10], 4.2%; with Enterococcus faecalis [11], 53.1%. In the test with Enterococcus faecalis [3], the IC50 is over 87.5 µg/mL.

Turning to `COc1ccccc1C1=C(Br)C(=O)N(CC(C)C)C1(O)Cc1ccc(C(F)(F)F)cc1` (centres undefined), the Activity with Enterococcus faecalis [1] is 11.3%; in the test on Enterococcus faecalis [2] it was 1.7%; with Enterococcus faecalis [4], 8.4%; in the test on Enterococcus faecalis [5] it was -7%; in the test with Enterococcus faecalis [6] it was -1.2%; in the test on Enterococcus faecalis [7], 1.9%. Also, the Activity with Enterococcus faecalis [8] is given as 3.4%; with Enterococcus faecalis [9], 22.7%; in the test with Enterococcus faecalis [10], 18.1%; with Enterococcus faecalis [11], -24.6%.

Take `COc1ccc(C)cc1C1=C(Br)C(=O)N(CC(C)C)C1(O)Cc1ccccc1Cl` (centres undefined): the Activity is recorded as -12.4% in the test with Enterococcus faecalis [1]; -15.6% in the test with Enterococcus faecalis [2]; 35.4% in the test on Enterococcus faecalis [4]; 46% in the test with Enterococcus faecalis [5]; 63.4% in the test with Enterococcus faecalis [6]; -3.7% with Enterococcus faecalis [7]. Besides, the Activity in the test on Enterococcus faecalis [8] came out at 19.1%; with Enterococcus faecalis [9], 43.8%; in the test on Enterococcus faecalis [10], 41.6%; in the test on Enterococcus faecalis [11] it was 86.4%. For the same compound, in the test with Enterococcus faecalis [3], the IC50 worked out at 1.07 µg/mL (≈ 2.23 µM).

Turning to `COc1cccc(/C=C2\C(c3cc(Cl)ccc3OC)=C(Br)C(=O)N2CC(C)C)c1`, the Activity with Enterococcus faecalis [1] was -6%; in the test on Enterococcus faecalis [2], -6.4%; in the test on Enterococcus faecalis [4] it was 8.1%; in the test with Enterococcus faecalis [5], 30.1%; in the test on Enterococcus faecalis [6] it was 33.5%; with Enterococcus faecalis [7], -9.4%. Besides, the Activity is given as -4.8% in the test with Enterococcus faecalis [8], 20.8% with Enterococcus faecalis [9], 33.7% with Enterococcus faecalis [10] and 56.3% in the test with Enterococcus faecalis [11]. Also, the IC50 in the test with Enterococcus faecalis [3] came out at 3.26 µg/mL (≈ 6.84 µM).

As for `COc1cccc(CC2(O)C(c3cc(Cl)ccc3OC)=C(Br)C(=O)N2CC(C)C)c1` (centres undefined), the Activity with Enterococcus faecalis [1] is 4%; with Enterococcus faecalis [2], 1%; in the test on Enterococcus faecalis [4], 9.5%; in the test on Enterococcus faecalis [5], 21.6%; in the test on Enterococcus faecalis [6] it was 38.2%; in the test on Enterococcus faecalis [7], -4%. The Activity with Enterococcus faecalis [8] is given as 3%; in the test on Enterococcus faecalis [9], 19.8%; in the test with Enterococcus faecalis [10] it was -8%; in the test on Enterococcus faecalis [11], 60.6%. Besides, in the test with Enterococcus faecalis [3], the IC50 was over 87.5 µg/mL.

For `COc1ccc(C)cc1C1=C(Br)C(=O)N(CC(C)C)/C1=C/c1ccccc1Cl`, the Activity with Enterococcus faecalis [1] is recorded as -1%; with Enterococcus faecalis [2], -1.8%; with Enterococcus faecalis [4], 27.8%; in the test with Enterococcus faecalis [5], 46.9%; in the test with Enterococcus faecalis [6], 58.8%; in the test on Enterococcus faecalis [7] it was -1.5%. In addition, the Activity in the test on Enterococcus faecalis [8] was found to be 15.7%; in the test on Enterococcus faecalis [9], 36.1%; in the test with Enterococcus faecalis [10], 36.6%; with Enterococcus faecalis [11], 82%. Besides, the IC50 in the test with Enterococcus faecalis [3] amounted to 1.04 µg/mL (≈ 2.26 µM).

Take `COc1ccc(Cl)cc1C1=C(Br)C(=O)O/C1=C\c1ccccc1Br`: the Activity is given as -3.4% in the test with Enterococcus faecalis [1]; -4.7% in the test on Enterococcus faecalis [2]; 23.8% with Enterococcus faecalis [4]; 47.5% in the test with Enterococcus faecalis [5]; 47% with Enterococcus faecalis [6]; 0.8% with Enterococcus faecalis [7]. In addition, the Activity in the test with Enterococcus faecalis [8] is -0.8%; with Enterococcus faecalis [9] it was 33.2%; in the test on Enterococcus faecalis [10], 36.3%; in the test on Enterococcus faecalis [11], 68.7%. Moreover, in the test with Enterococcus faecalis [3], the IC50 is over 87.5 µg/mL.
